{"source": "patent US20200231614A1", "about": "“PSMA TARGETED RADIOHALOGENATED UREAS FOR CANCER RADIOTHERAPY” (THE JOHNS HOPKINS UNIVERSITY, priority 2015, published 2020)", "key": {"[1]": {"tested_on": "PSMA + PC-3 PiP and PSMA − PC-3 flu tumor xenografts", "conditions": "for Biodistribution: PC-3 PiP: PSMA+ tumor xenograft; for Biodistribution: PC-3 flu: PSMA− tumor xenograft"}, "[2]": {"tested_on": "PSMA + PC-3 PiP and PSMA − PC-3 flu tumor xenografts", "conditions": "radioiodinated compound, Chen et al., 2008; cited from earlier work"}}, "note": "Read-outs that look alike come from different tables or passages of the source.", "data": [{"smiles": "O=C(O)CC[C@H](NC(=O)N[C@@H](CCCCNC(=O)c1ccc([131I])cc1)C(=O)O)C(=O)O", "note": "[[^131I]YC-I-27]", "values": [{"measurement": "Biodistribution: Sm int.", "setting": "[1]; 1 H post-injection", "result": "1.83 ± 0.41", "unit": "% ID/g"}, {"measurement": "Biodistribution: bladder", "setting": "[1]; 1 H post-injection", "result": "2.99 ± 0.42", "unit": "% ID/g"}, {"measurement": "Biodistribution: blood", "setting": "[1]; 1 H post-injection", "result": "1.57 ± 0.69", "unit": "% ID/g"}, {"measurement": "Biodistribution: heart", "setting": "[1]; 1 H post-injection", "result": "1.88 ± 0.66", "unit": "% ID/g"}, {"measurement": "Biodistribution: liver", "setting": "[1]; 1 H post-injection", "result": "7.37 ± 1.29", "unit": "% ID/g"}, {"measurement": "Biodistribution: lung", "setting": "[1]; 1 H post-injection", "result": "4.67 ± 0.63", "unit": "% ID/g"}, {"measurement": "Biodistribution: muscle", "setting": "[1]; 1 H post-injection", "result": "0.73 ± 0.22", "unit": "% ID/g"}, {"measurement": "Biodistribution: spleen", "setting": "[1]; 1 H post-injection", "result": "21.2 ± 3.62", "unit": "% ID/g"}, {"measurement": "Biodistribution: stomach", "setting": "[1]; 1 H post-injection", "result": "0.92 ± 0.16", "unit": "% ID/g"}, {"measurement": "Biodistribution: thyroid", "setting": "[1]; 1 H post-injection", "result": "0.45 ± 0.14", "unit": "% ID/g"}, {"measurement": "Biodistribution: Sm int.", "setting": "[1]; 2 H post-injection", "result": "1.92 ± 0.55", "unit": "% ID/g"}, {"measurement": "Biodistribution: bladder", "setting": "[1]; 2 H post-injection", "result": "2.96 ± 1.12", "unit": "% ID/g"}, {"measurement": "Biodistribution: blood", "setting": "[1]; 2 H post-injection", "result": "0.86 ± 0.20", "unit": "% ID/g"}, {"measurement": "Biodistribution: heart", "setting": "[1]; 2 H post-injection", "result": "1.31 ± 0.58", "unit": "% ID/g"}, {"measurement": "Biodistribution: liver", "setting": "[1]; 2 H post-injection", "result": "5.69 ± 1.49", "unit": "% ID/g"}, {"measurement": "Biodistribution: lung", "setting": "[1]; 2 H post-injection", "result": "4.92 ± 1.95", "unit": "% ID/g"}, {"measurement": "Biodistribution: muscle", "setting": "[1]; 2 H post-injection", "result": "0.62 ± 0.19", "unit": "% ID/g"}, {"measurement": "Biodistribution: spleen", "setting": "[1]; 2 H post-injection", "result": "26.25 ± 15.11", "unit": "% ID/g"}, {"measurement": "Biodistribution: stomach", "setting": "[1]; 2 H post-injection", "result": "0.71 ± 0.46", "unit": "% ID/g"}, {"measurement": "Biodistribution: thyroid", "setting": "[1]; 2 H post-injection", "result": "0.24 ± 0.18", "unit": "% ID/g"}, {"measurement": "Biodistribution: Sm int.", "setting": "[1]; 4 H post-injection", "result": "1.37 ± 0.51", "unit": "% ID/g"}, {"measurement": "Biodistribution: bladder", "setting": "[1]; 4 H post-injection", "result": "1.37 ± 0.48", "unit": "% ID/g"}, {"measurement": "Biodistribution: blood", "setting": "[1]; 4 H post-injection", "result": "0.59 ± 0.27", "unit": "% ID/g"}, {"measurement": "Biodistribution: heart", "setting": "[1]; 4 H post-injection", "result": "0.87 ± 0.24", "unit": "% ID/g"}, {"measurement": "Biodistribution: liver", "setting": "[1]; 4 H post-injection", "result": "3.21 ± 1.14", "unit": "% ID/g"}, {"measurement": "Biodistribution: lung", "setting": "[1]; 4 H post-injection", "result": "2.72 ± 1.01", "unit": "% ID/g"}, {"measurement": "Biodistribution: muscle", "setting": "[1]; 4 H post-injection", "result": "0.43 ± 0.30", "unit": "% ID/g"}, {"measurement": "Biodistribution: spleen", "setting": "[1]; 4 H post-injection", "result": "18.2 ± 6.19", "unit": "% ID/g"}, {"measurement": "Biodistribution: stomach", "setting": "[1]; 4 H post-injection", "result": "0.69 ± 0.23", "unit": "% ID/g"}, {"measurement": "Biodistribution: thyroid", "setting": "[1]; 4 H post-injection", "result": "0.10 ± 0.22", "unit": "% ID/g"}, {"measurement": "Biodistribution: Sm int.", "setting": "[1]; 21 H post-injection", "result": "0.33 ± 0.12", "unit": "% ID/g"}, {"measurement": "Biodistribution: bladder", "setting": "[1]; 21 H post-injection", "result": "0.48 ± 0.09", "unit": "% ID/g"}, {"measurement": "Biodistribution: blood", "setting": "[1]; 21 H post-injection", "result": "0.16 ± 0.06", "unit": "% ID/g"}, {"measurement": "Biodistribution: heart", "setting": "[1]; 21 H post-injection", "result": "0.46 ± 0.22", "unit": "% ID/g"}, {"measurement": "Biodistribution: liver", "setting": "[1]; 21 H post-injection", "result": "0.56 ± 0.09", "unit": "% ID/g"}, {"measurement": "Biodistribution: lung", "setting": "[1]; 21 H post-injection", "result": "1.63 ± 0.47", "unit": "% ID/g"}, {"measurement": "Biodistribution: muscle", "setting": "[1]; 21 H post-injection", "result": "0.14 ± 0.03", "unit": "% ID/g"}, {"measurement": "Biodistribution: spleen", "setting": "[1]; 21 H post-injection", "result": "5.25 ± 1.51", "unit": "% ID/g"}, {"measurement": "Biodistribution: stomach", "setting": "[1]; 21 H post-injection", "result": "0.40 ± 0.07", "unit": "% ID/g"}, {"measurement": "Biodistribution: thyroid", "setting": "[1]; 21 H post-injection", "result": "0.13 ± 0.11", "unit": "% ID/g"}, {"measurement": "Biodistribution: PC-3 PiP", "setting": "[1]; 1 H post-injection", "result": "13.1 ± 5.55", "unit": "% ID/g"}, {"measurement": "Biodistribution: PC-3 PiP", "setting": "[1]; 2 H post-injection", "result": "15.5 ± 4.19", "unit": "% ID/g"}, {"measurement": "Biodistribution: PC-3 PiP", "setting": "[1]; 4 H post-injection", "result": "16.3 ± 3.80", "unit": "% ID/g"}, {"measurement": "Biodistribution: PC-3 PiP", "setting": "[1]; 21 H post-injection", "result": "25.6 ± 10.2", "unit": "% ID/g"}, {"measurement": "Biodistribution: PC-3 flu", "setting": "[1]; 1 H post-injection", "result": "0.62 ± 0.11", "unit": "% ID/g"}, {"measurement": "Biodistribution: PC-3 flu", "setting": "[1]; 2 H post-injection", "result": "0.40 ± 0.11", "unit": "% ID/g"}, {"measurement": "Biodistribution: PC-3 flu", "setting": "[1]; 4 H post-injection", "result": "0.22 ± 0.07", "unit": "% ID/g"}, {"measurement": "Biodistribution: PC-3 flu", "setting": "[1]; 21 H post-injection", "result": "0.06 ± 0.01", "unit": "% ID/g"}, {"measurement": "PSMA positive tumor uptake (in words)", "setting": "[1]; biodistributions of Tables 2, 3, 9, 10", "result": "demonstrated PSMA positive tumor uptake"}]}, {"smiles": "O=C(O)CC[C@H](NC(=O)N[C@@H](CCCCNC(=O)c1ccc(I)cc1)C(=O)O)C(=O)O", "note": "[YC-I-27]", "values": [{"measurement": "Tumor uptake (in words)", "setting": "[2]", "result": "high and prolonged tumor uptake"}]}]}
